Tests used:
[1] = molecular target: HDAC1 (Homo sapiens, UniProt Q13547); test: Simple Western immunoassay, HDAC1 levels in U-87MG cell lysates; assay type: cell-based; parameters: endogenous in cells; host or cells: MM.1S; conditions: 10 μM, 24 h
Experimental: Figure S5. Analysis of HDAC1 and 6 degradation in U-87MG cells. Simple western immunoassay analysis of U-87MG cell lysates. The cells were treated with the indicated compound (10 µM) or vehicle (DMSO) for 24 h. Top: Quantification of HDAC levels, presented as mean ± standard deviation of n = 2 biological replicates; Significance compared to vehicle: ns = p≥0.05 and *** = p≤0.001. Bottom:
Representative images of n = 2 biological replicates.
(1 picture or pasted object on this page, not shown here)
2. Biological Experiments
No unexpected or unusually high safety hazards were encountered.
The human multiple myeloma cell line MM.1S (CRL-2974) was obtained from American Type Culture Collection (ATCC, Manassas, VA, USA). […]
Louis, MO, USA) according to manufacturer´s instructions. Protein content was determined by Pierce™ BCA Protein Assay Kit (Catalog# 23225, Thermo Fisher Scientific Inc.) according to manufacturer´s guidelines. […]
Fluorescence Separation 8x25 Capillary Cartridges (Catalog# SM-FL004-1, Protein Simple, Bio-Techne, Minneapolis, MN, USA) were used for separation and the Anti-Mouse Detection Module (Catalog# DM-002, Protein Simple) was used for detection with addition of 20x Anti-Rabbit HRP […]
Conjugate (Catalog# 043-426, Protein Simple) according to manufacturer´s instructions. […] Evaluation and quantification was performed with the compass software (6.2.0, Protein Simple). […]

[2] = tested on: MM.1S cells; test: Cell cycle analysis by PI staining and flow cytometry; assay type: cell-based, human; conditions: 10 μM, 48 h
Experimental: GraphPad Prism (GraphPad Software). […]
Biotech), resuspended in 1 mL EtOH/D PBS (7/3 v/v), and fixed for 30 min at 4 °C. The samples were rehydrated with DPBS and treated with 5 µg /mL RNAse ( Catalog# EN0531 , ThermoFisher Scientific Inc.) for 15 min at room temperature. The staining was performed with 3 µM propidium iodide (in DPBS) for 15 min at room temperature and analyzed by flow cytometry ( Guava easyCyteTM, Luminex, […]
Lakes, NJ, USA), using the Watson Pragmatic algorithm.[6] GraphPad Prism (GraphPad Software) was used for normalization, statistical analysis, and bar graph creation. Significance testing was performed with a one-way analysis of variance (ANOVA). Dunnett’s post-hoc test was employed to obtain […]
Final DMSO concentration was 0.1%.
Staining was performed with
Fluorescence was measured by flow cytometry (Guava® easyCyteTM, Luminex, Austin, Texas). GraphPad Prism (GraphPad Software) was used for normalization, statistical analysis, and bar graph creation. Significance testing was performed with a one-way analysis of variance (ANOVA).
Subsequently, cells were harvested and […]
After 30 minutes of incubation at […]
Dunnett’s post-hoc test was employed

[3] = tested on: MDA-MB-231 cells; test: Clonogenic growth assay; assay type: cell-based, human; conditions: 10 μM for 48 h, nine days of growth
Experimental: Figure 9 Clonogenic growth assay of DCAF11‐recruiting PROTACs. MDA‐MB‐231 cells were treated with 10 μM of the respective compound or vehicle (DMSO) for 48 hours. (A) Representative images of crystal violet stained colonies after nine days of growth. (B) Quantification of counted colonies, presented as mean ± standard deviation of three biological replicates, each performed in triplicates. Significance of quantification compared to vehicle: ns=p≥0.05; **=p≤0.01 and ***=p≤0.001. […]
Subsequently, cells were harvested and
plated in 6-well plates at a density of 750 cells per well in triplicates. The cell culture medium was
changed after five days. Nine days after plating, the colonies were carefully washed with 500 µL DPBS
and stained with 500 µL crystal violet solution (0.5% in methanol). After 30 minutes of incubation at
room temperature, the wells were gently rinsed with deionized water. After counting the formed
colonies, GraphPad Prism (GraphPad Software) was used for bar graph creation. Significance testing
was performed with a one-way analysis of variance (ANOVA). Dunnett’s post-hoc test was employed
to obtain significance levels of each mean compared to a reference mean value.

Sequence of HDAC1 (Q13547 whole entry): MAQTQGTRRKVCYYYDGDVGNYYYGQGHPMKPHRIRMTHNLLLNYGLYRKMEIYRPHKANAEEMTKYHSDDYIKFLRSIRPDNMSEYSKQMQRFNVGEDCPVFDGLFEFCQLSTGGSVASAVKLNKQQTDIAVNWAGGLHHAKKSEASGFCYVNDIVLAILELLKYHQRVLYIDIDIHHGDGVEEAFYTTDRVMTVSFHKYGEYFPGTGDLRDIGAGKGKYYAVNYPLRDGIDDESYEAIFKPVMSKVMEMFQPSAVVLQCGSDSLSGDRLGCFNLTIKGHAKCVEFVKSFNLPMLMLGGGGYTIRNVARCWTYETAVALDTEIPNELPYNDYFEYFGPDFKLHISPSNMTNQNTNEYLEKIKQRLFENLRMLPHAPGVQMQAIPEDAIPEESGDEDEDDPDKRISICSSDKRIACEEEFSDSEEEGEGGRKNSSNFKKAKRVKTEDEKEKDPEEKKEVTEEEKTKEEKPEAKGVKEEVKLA

Structure (SMILES)	HDAC1 degradation in U-87MG cells [1]	effect on cell cycle phases [2]	reduction of colonies (clonogenic growth) [3]
O=C(CCCCCCNC(=O)c1ccc(NC(=O)CCCCCCCCCCCN(C(=O)CCl)C(C(=O)NCc2ccccc2)c2ccc(Cl)c(Cl)c2)cc1)NO (stereo not drawn) [Compound 1j]	significant HDAC1 and 6 degradation	increase of the sub G1 phase, while the S phase was decreased	significant reduction of colonies
O=C(CCCCCCNC(=O)c1ccc(N(C(=O)CCl)C(C(=O)NCc2ccccc2)c2ccc(Cl)c(Cl)c2)cc1)NO (stereo not drawn) [Compound 2]	significant degradation for HDAC1	increase of the sub G1 phase, while the S phase was decreased	significant reduction of colonies

Source: publication PMC12091851, “Replacing a Cereblon Ligand by a DDB1 and CUL4 Associated Factor 11 (DCAF11) Recruiter Converts a Selective Histone Deacetylase 6 PROTAC into a Pan‐Degrader” (Chemmedchem, 2025)
